Source: patent US11325896B2, “Antagonists of the muscarinic acetylcholine receptor M4” (Vanderbilt University, priority 2017, dated 2022)

Experiments:
M4 knockout mice = conditions: not the other four mAChR subtypes; cited from earlier work
[1] = system: haloperidol-induced catalepsy; experiment: haloperidol-induced catalepsy in mice; format: in vivo
Excerpt: Furthermore, haloperidol-induced catalepsy, a model of parkinsonian motor disability, is reduced in M4 knockout mice as compared to wild-type controls. […] The reversal by scopolamine was uncommonly robust and more pronounced than we observe with agents targeting a number of other targets being evaluated for potential antiparkinsonian effects, including metabotropic glutamate (mGlu) receptors mGlu4 or mGlu5, A2A adenosine receptors, and NMDA receptors. […] Taken together with the extensive studies of M4 modulation of basal ganglia and motor function, these studies provide compelling evidence that M4 is the dominant mAChR subtype involved in the antiparkinsonian effects of non-selective mAChR antagonists and provide support for discovery and development of selective M4 antagonists for treatment of neurodegenerative disease such as PD, dystonia, tardive dyskinesia and other movement disorders.

human mAChR M4 = target: T1, human mAChR M4 (Homo sapiens, UniProt P08173); experiment: mAChR M4 cell-based functional assay (calcium flux, decrease of EC80 acetylcholine response); conditions: for remaining activity at 30 µM: % ACh maximum at 30 μM, human M4, read-out: Emin; for IC50: M4/Gqi5/CHO-K1 cells, decrease of response to EC80 acetylcholine
T1 construct: expressed in transfected cells; host or cells: CHO-K1 (ATCC), stably co-expressing the chimeric G protein Gqi5
T1 sequence (P08173 1-479): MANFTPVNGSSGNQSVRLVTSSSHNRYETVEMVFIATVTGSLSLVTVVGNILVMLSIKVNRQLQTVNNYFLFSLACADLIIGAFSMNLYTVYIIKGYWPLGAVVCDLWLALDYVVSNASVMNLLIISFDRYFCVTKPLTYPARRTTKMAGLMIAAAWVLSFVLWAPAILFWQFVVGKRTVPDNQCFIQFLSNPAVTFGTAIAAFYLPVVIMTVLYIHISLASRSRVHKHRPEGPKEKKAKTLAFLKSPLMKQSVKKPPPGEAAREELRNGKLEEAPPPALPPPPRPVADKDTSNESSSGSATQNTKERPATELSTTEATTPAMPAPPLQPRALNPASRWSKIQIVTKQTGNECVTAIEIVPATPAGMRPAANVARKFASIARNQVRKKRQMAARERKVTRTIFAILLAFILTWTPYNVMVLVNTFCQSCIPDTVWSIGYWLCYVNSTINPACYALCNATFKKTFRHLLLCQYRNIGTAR
Experimental: Human or rat M4 cDNA, along with the chimeric G protein Gqi5, were transfected into Chinese hamster ovary (CHO-K1) cells purchased from the American Type Culture Collection using Lipofectamine2000. M4/Gqi5/CHO cells were grown in Ham's F-12 medium containing 10% heat-inactivated fetal bovine serum (FBS), 20 mM HEPES, 500 μg/mL G418 sulfate, and 200 μg/mL Hygromycin B.
For high throughput measurement of agonist-evoked increases in intracellular calcium, CHO-K1 cells stably expressing muscarinic receptors were plated in growth medium lacking G418 and hygromycin at 15,000 cells/20 μL/well in Greiner 384-well black-walled, tissue culture (TC)-treated, clear-bottom plates (VWR). Cells were incubated overnight at 37° C. and 5% CO2. The next day, cells were washed using an ELX 405 (BioTek) with assay buffer: the final volume was then aspirated to 20 μL. Next, 20 μL of a 2.3 μM stock of Fluo-4/acetoxymethyl ester (Invitrogen, Carlsbad, Calif.), prepared as a 2.3 mM stock in DMSO and mixed in a 1:1 ratio with 10% (w/v) Pluronic F-127 and diluted in assay buffer, was added to the wells and the cell plates were incubated for 50 min at 37° C. and 5% CO2. Dye was removed by washing with the ELX 405 and the final volume was aspirated to 20 μL. Compound master plates were formatted in a 10 point concentration-response curve (CRC) format (1:3 dilutions) in 100% DMSO with a starting concentration of 10 or 1 mM using a BRAVO liquid handler (Agilent). Test compound CRCs were then transferred to daughter plates (240 nL) using the Echo acoustic plate reformatter (Labcyte, Sunnyvale, Calif.) and then diluted into assay buffer (40 μL) to a 2× stock using a Thermo Fisher Combi (Thermo Fisher Scientific, Waltham, Mass.).
Calcium flux was measured using the Functional Drug Screening System (FDSS) 6000 or 7000 (Hamamatsu Corporation, Tokyo, Japan) as an increase in the fluorescent static ratio. Compounds were applied to cells (20 μL, 2×) using the automated system of the FDSS at 2 seconds into the protocol and the data were collected at 1 Hz. At 143 s, 10 μL of an EC20 concentration of the muscarinic receptor agonist acetylcholine was added (5×), followed by the addition of 12 μL of an EC80 concentration of acetylcholine at the 268 s time point (5×). Agonist activity was analyzed as a concentration-dependent increase in calcium mobilization upon compound addition. Positive allosteric modulator activity was analyzed as a concentration-dependent increase in the EC20 acetylcholine response. Antagonist activity was analyzed as a concentration-dependent decrease in the EC80 acetylcholine response; for the purposes of the tables herein, an IC50 (inhibitory concentration 50) was calculated as a concentration-dependent decrease of the response elicited by an EC80 concentration of acetylcholine. Concentration-response curves were generated using a four-parameter logistical equation in XLFit curve fitting software (IDBS, Bridgewater, N.J.) for Excel (Microsoft, Redmond, Wash.) or Prism (GraphPad Software, Inc., San Diego, Calif.) or the Dotmatics software platform (Dotmatics, Bishop's Stortford, UK).
Compounds were synthesized as described above. Activity (IC50 and Emin) was determined in the mAChR M4 cell-based functional assay as described above and the data are shown in Table 4. The compound numbers correspond to those used in Examples 1-4 and Tables 1-3.

What does the source list for `CN1[C@@H]2C[C@@H](OC(=O)[C@H](CO)c3ccccc3)C[C@H]1[C@@H]1O[C@@H]12` [scopolamine]?
locomotor-activating effects (M4 knockout mice): dramatically reduced; reduction of catalepsy induced by haloperidol ([1]; M4 KO mice): ineffective; reversal of catalepsy induced by haloperidol ([1]; WT mice): completely reversed

For `Cc1nn(C)cc1-c1ccc(NC2CC3(C2)CN(CC2CCOCC2)C3)nn1` [Compound 2, N-(6-(1,3-dimethyl-1H-1-pyrazol-4-yl)pyridazin-3-yl)-2-((tetrahydro-2H-pyran-4-yl)methyl)-2-azaspiro[3.3]heptan-6-amine], which remaining activity at 30 µM (human mAChR M4) is on record?
The remaining activity at 30 µM was 46.5%.

What about the IC50 (human mAChR M4) of the same compound?
The IC50 was 10 µM.

Which results are given for `CC(C)(C)CCN1CC2(CC(Nc3ccc(-c4cc(F)ccc4Cl)nn3)C2)C1` [Compound 4, N-(6-(2-chloro-5-fluorophenyl)pyridazin-3-yl)-2-(3,3-dimethylbutyl)-2-azaspiro[3.3]heptan-6-amine]?
remaining activity at 30 µM (human mAChR M4): 2.8%; IC50 (human mAChR M4): 0.16 µM
